# Data from patent US6894047B2, “Triazine compounds useful as sorbitol dehydrogenase inhibitors” (Pfizer Inc., priority 2001, dated 2005).
row,SMILES,melting point [°C]
1,"CC1CN(c2ncnc(CO)n2)CC(C)N1c1ncnc(-c2ccccc2)n1 (stereo not drawn) [Example 10, 1-{4-[4-(4-phenyl-[1,3,5]triazin-2-yl)-3R,5S-dimethyl-piperazin-1-yl]-[1,3,5]triazin-2-yl}-methanol]",206 to 207
2,"CC1CN(c2ncnc(CO)n2)CC(C)N1c1ncnc(CO)n1 (stereo not drawn) [Example 11, 1-{4-[4-(4-Hydroxymethyl-[1,3,5]triazin-2-yl)-3R,5S-dimethyl-piperazin-1-yl]-[1,3,5]triazin-2-yl}-methanol]",224 to 225
3,"Cc1nc(O)nc(N2C(C)CN(c3ncnc(C(C)O)n3)CC2C)n1 (stereo not drawn) [Example 15, 1-{4-[4-(4-Hydroxy-3-methyl-[1,3,5]triazin-2-yl)-3R,5S-dimethyl-piperazin-1-yl]-[1,3,5]triazin-2-yl}-ethanol]",263 to 265
4,"CC1CN(c2ncnc(-c3ccccc3)n2)CC(C)N1c1ncnc(CO)n1 (stereo not drawn) [Example 16, 1-{4-[4-(4-Phenyl-[1,3,5]triazin-2-yl)-2R,6S-dimethyl-piperazin-1-yl]-[1,3,5]triazin-2-yl}-methanol]",197 to 198

# Continued, values first:
row,melting point [°C],SMILES
1,155 to 160,"COc1nc(C)nc(N2C(C)CN(c3ncnc(CO)n3)CC2C)n1 (stereo not drawn) [Example 12, 1-{4-[4-(4-methoxy-6-methyl-[1,3,5]triazin-2-yl)-3R,5S-dimethyl-piperazin-1-yl]-[1,3,5]triazin-2-yl}-methanol]"
2,> 275,"CC(O)c1ncnc(N2CC(C)N(c3nc(O)nc(-c4ccccc4)n3)C(C)C2)n1 (stereo not drawn) [Example 14, 1-{4-[4-(4-Hydroxy-6-phenyl-[1,3,5]triazin-2-yl)-3R,5S-dimethyl-piperazin-1-yl]-[1,3,5]triazin-2-yl}-ethanol]"
